Results on five compounds are retold here after patent US9605004B2, “Chemical compounds” (SYNGENTA LIMITED, priority 2013, dated 2017).

Molecules are shown by their SMILES.

For assay [1], the system named is a variety of test species. Put plainly: Pre-emergence herbicidal activity (Example 8a, Table 2). Format: in vivo. Also on record: key: 0 = no damage to plant, 5 = total damage to plant. The following applies: application pre-emergence, rate 1000 g/ha, evaluated after 13 days. How it is done: Seeds of a variety of test species were sown in standard soil in pots. After cultivation for one day (pre-emergence) under controlled conditions in a glasshouse (at 24/16° C., day/night; 14 hours light; 65% humidity), the plants were sprayed with an aqueous spray solution derived from the formulation of the technical active ingredient in acetone/water (50:50) solution containing 0.5% Tween 20 (polyoxyethelyene sorbitan monolaurate, CAS RN 9005-64-5). The test plants were then grown in a glasshouse under controlled conditions (at 24/16° C., day/night; 14 hours light; 65% humidity) and watered twice daily. After 13 days, the test was evaluated (5=total damage to plant; 0=no damage to plant).

Assay [2] deals with a variety of test species. Put plainly: Post-emergence herbicidal activity (Example 8b, Table 3). Format: in vivo. The settings on record: application post-emergence, rate 1000 g/ha, evaluated after 13 days, scale 0-5; for Herbicidal damage score, ABUTH: Abutilon theophrasti; for Herbicidal damage score, ALOMY: Alopecurus myosuroides; for Herbicidal damage score, AMARE: Amaranthus retroflexus; for Herbicidal damage score, ECHCG: Echinochloa crus-galli; for Herbicidal damage score, SETFA: Setaria faberi; for Herbicidal damage score, ZEAMX: Zea mays. How it is done:
Seeds of a variety of test species were sown in standard soil in pots. After 8 days cultivation (post-emergence) under controlled conditions in a glasshouse (at 24/16° C., day/night; 14 hours light; 65% humidity), the plants were sprayed with an aqueous spray solution derived from the formulation of the technical active ingredient in acetone/water (50:50) solution containing 0.5% Tween 20 (polyoxyethelyene sorbitan monolaurate, CAS RN 9005-64-5). The test plants were then grown in a glasshouse under controlled conditions (at 24/16° C., day/night; 14 hours light; 65% humidity) and watered twice daily. After 13 days, the test was evaluated (5=total damage to plant; 0=no damage to plant).

For `CC1=C(Cl)C(=O)N(c2cc(C(F)(F)C(F)(F)F)n(C)n2)C1O` (stereo not drawn) [Compound B4], in assay [1], the “Pre-emergence herbicidal activity, damage score ABUTH” value was 5; the “Pre-emergence herbicidal activity, damage score ALOMY” value worked out at 4; the “Pre-emergence herbicidal activity, damage score AMARE” value is recorded as 5; the “Pre-emergence herbicidal activity, damage score ECHCG” value worked out at 5. In assay [1], the “Pre-emergence herbicidal activity, damage score SETFA” value was 5 and the “Pre-emergence herbicidal activity, damage score ZEAMX” value is given as 2. Also, in assay [2], the “Herbicidal damage score, ABUTH” value came out at 5; the “Herbicidal damage score, ALOMY” value stood at 5; the “Herbicidal damage score, AMARE” value came out at 5; the “Herbicidal damage score, ECHCG” value is on record as 5. Besides, in assay [2], the “Herbicidal damage score, SETFA” value is on record as 5 and the “Herbicidal damage score, ZEAMX” value came out at 3.
With `CC1=C(Cl)C(=O)N(c2cc(C(C)C)n(C)n2)C1O` (stereo not drawn) [Compound B5], in assay [1], the “Pre-emergence herbicidal activity, damage score ABUTH” value was 5; the “Pre-emergence herbicidal activity, damage score ALOMY” value is on record as 3; the “Pre-emergence herbicidal activity, damage score AMARE” value came to 5; the “Pre-emergence herbicidal activity, damage score ECHCG” value is given as 5. Also, in assay [1], the “Pre-emergence herbicidal activity, damage score SETFA” value is 4 and the “Pre-emergence herbicidal activity, damage score ZEAMX” value was 2. Also, in assay [2], the “Herbicidal damage score, ABUTH” value turned out to be 5; the “Herbicidal damage score, ALOMY” value was determined as 4; the “Herbicidal damage score, AMARE” value worked out at 5; the “Herbicidal damage score, ECHCG” value is reported as 5. Moreover, in assay [2], the “Herbicidal damage score, SETFA” value is 4 and the “Herbicidal damage score, ZEAMX” value came out at 5.
With `C=CCC(C)(C)c1cc(N2C(=O)C(Cl)=C(C)C2O)nn1C` (stereo not drawn) [Compound B6, 4-chloro-1-[5-(1,1-dimethylbut-3-enyl)-1-methyl-pyrazol-3-yl]-2-hydroxy-3-methyl-2H-pyrrol-5-one], in assay [1], the “Pre-emergence herbicidal activity, damage score ABUTH” value was 5; the “Pre-emergence herbicidal activity, damage score ALOMY” value came to 4; the “Pre-emergence herbicidal activity, damage score AMARE” value is 5; the “Pre-emergence herbicidal activity, damage score ECHCG” value amounted to 4. In addition, in assay [1], the “Pre-emergence herbicidal activity, damage score SETFA” value is on record as 5 and the “Pre-emergence herbicidal activity, damage score ZEAMX” value is reported as 4. Besides, in assay [2], the “Herbicidal damage score, ABUTH” value is 5; the “Herbicidal damage score, ALOMY” value amounted to 5; the “Herbicidal damage score, AMARE” value turned out to be 5; the “Herbicidal damage score, ECHCG” value stood at 5. Also, in assay [2], the “Herbicidal damage score, SETFA” value stood at 5 and the “Herbicidal damage score, ZEAMX” value turned out to be 4.
Take `CC(C)=Cc1cc(N2C(=O)C(Cl)=C(C)C2O)nn1C` (stereo not drawn) [Compound B7, 4-chloro-2-hydroxy-3-methyl-1-[1-methyl-5-(2-methylprop-1-enyl)pyrazol-3-yl]-2H-pyrrol-5-one]: in assay [1], the “Pre-emergence herbicidal activity, damage score ABUTH” value turned out to be 4; the “Pre-emergence herbicidal activity, damage score ALOMY” value amounted to 2; the “Pre-emergence herbicidal activity, damage score AMARE” value came to 4; the “Pre-emergence herbicidal activity, damage score ECHCG” value was determined as 4. For the same compound, in assay [1], the “Pre-emergence herbicidal activity, damage score SETFA” value was 4 and the “Pre-emergence herbicidal activity, damage score ZEAMX” value was determined as 2. Also, in assay [2], the “Herbicidal damage score, ABUTH” value is on record as 5; the “Herbicidal damage score, ALOMY” value is listed as 4; the “Herbicidal damage score, AMARE” value stood at 5; the “Herbicidal damage score, ECHCG” value was 5. Besides, in assay [2], the “Herbicidal damage score, SETFA” value came out at 5 and the “Herbicidal damage score, ZEAMX” value is on record as 2.
Regarding `CC1=C(Cl)C(=O)N(c2cc(I)n(C)n2)C1O` (stereo not drawn) [Compound B8, 4-chloro-2-hydroxy-1-(5-iodo-1-methyl-pyrazol-3-yl)-3-methyl-2H-pyrrol-5-one], in assay [1], the “Pre-emergence herbicidal activity, damage score ABUTH” value worked out at 4; the “Pre-emergence herbicidal activity, damage score ALOMY” value is recorded as 4; the “Pre-emergence herbicidal activity, damage score AMARE” value came out at 5; the “Pre-emergence herbicidal activity, damage score ECHCG” value is given as 4. For the same compound, in assay [1], the “Pre-emergence herbicidal activity, damage score SETFA” value turned out to be 5 and the “Pre-emergence herbicidal activity, damage score ZEAMX” value is on record as 3. For the same compound, in assay [2], the “Herbicidal damage score, ABUTH” value came to 5; the “Herbicidal damage score, ALOMY” value is 5; the “Herbicidal damage score, AMARE” value is recorded as 5; the “Herbicidal damage score, ECHCG” value stood at 5. Also, in assay [2], the “Herbicidal damage score, SETFA” value was found to be 5 and the “Herbicidal damage score, ZEAMX” value is recorded as 4.
